Data reported in patent US11691949B2, “Quinoline sulfonamide compounds and their use as antibacterial agents” (OTAGO INNOVATION LIMITED, priority 2017, dated 2023).
Converted amounts (≈) assume the structure as drawn. Where two headings read alike, the source gives them in different places.

Columns and labels:
Type in all cases: cell-based
E. coli ATCC 10596 = assay: MIC by broth microdilution, E. coli; details: Escherichia coli, read-out: E. coli ATCC 10536 MIC
Experimental: (§1) Antibacterial susceptibility testing was performed in triplicate (biological) by measuring minimum inhibitory concentrations (MICs) by broth microdilution in 96-well flat bottom microtiter plates (ThermoFisher Scientific, New Zealand). S. uberis ATCC 19436, S. aureus ATCC 6538, or E. coli ATCC 10596 cells grown overnight were diluted to an OD600 of approximately 0.025, so that the final concentration of cells in the MIC assay was approximately 5×10^5 cfu/mL in media as follows: S. uberis; Todd Hewitt Broth (THB), S. aureus; Tryptic Soy Broth (TSB) and Cation Adjusted Muller Hinton Broth (CAMHB), and E. coli; Lysogeny Borth (LB) and CAMHB, before being dispensed into microtiter wells. As required additional sterile Zinc Sulphate (Heptahydrate) was supplemented into the media, so the final concentration was 50 μM. Test compounds were added to starting wells and two-fold serial dilutions were undertaken to generate a range of inhibitor concentrations at a final volume of 200 μl. Media and test compound-free (untreated) controls were included in each microtiter plate in triplicate. After 24 h incubation at 37° C. and 200 rpm, the OD600 of wells were read using a Varioskan Flash plate reader (ThermoFisher Scientific, New Zealand). The MIC was reported as the lowest concentration of the test compound for which no growth occurred, as determined by OD600 readings. The minimum bactericidal concentration (MBC) was determined using the Miles-Misra drop-plate method to measure the viability of cells in response to test compound challenge.

S. uberis ATCC 19436 = assay: MIC by broth microdilution, S. uberis; details: Streptococcus uberis, read-out: S. uberis ATCC 19436 MIC
Experimental: as §1

S. aureus ATCC 6538 = assay: MIC by broth microdilution, S. aureus; details: Staphylococcus aureus, read-out: S. aureus ATCC 6538 MIC
Experimental: as §1

[1] = ATCC 10536 / ATCC 10596, No Zinc
[2] = ATCC 10536 / ATCC 10596, Zinc (50 μM)

Compound	MIC (E. coli ATCC 10596; [1]) [µg/mL]	MIC (E. coli ATCC 10596; [2]) [µg/mL]	MIC (S. uberis ATCC 19436; ATCC19436, No Zinc) [µg/mL]	MIC (S. uberis ATCC 19436; ATCC19436, Zinc (50 μM)) [µg/mL]	MIC (S. aureus ATCC 6538; ATCC6538, No Zinc) [µg/mL]	MIC (S. aureus ATCC 6538; ATCC6538, Zinc (50 μM)) [µg/mL]
O=S(=O)(Nc1cccc2ccc(CNC3CC3)nc12)c1ccc(C(F)(F)F)cc1 [ZDR086, N-(2-((Cyclopropylamino)methyl)quinolin-8-yl)-4-(trifluoromethyl)benzenesulfonamide]	128 (≈ 304 µM)	256 (≈ 607 µM)	64 (≈ 152 µM)	0.25 (≈ 0.593 µM)	64 (≈ 152 µM)	> 256
CC(=O)NCCNCc1ccc2cccc(NS(=O)(=O)c3ccc(C(F)(F)F)cc3)c2n1 [ZDR148, N-(2-(((8-((4-(Trifluoromethyl)phenyl)sulfonamido)quinolin-2-yl)methyl)amino)ethyl)acetamide]	128 (≈ 274 µM)	256 (≈ 549 µM)	64 (≈ 137 µM)	1 (≈ 2.14 µM)	64 (≈ 137 µM)	128 (≈ 274 µM)
CN(C)Cc1ccc2cccc(NS(=O)(=O)c3cccc(S(N)(=O)=O)c3)c2n1 [ZDR155, N-(2-((Dimethylamino)methyl)quinolin-8-yl)benzene-1,3-disulfonamide]	> 256	> 256	> 256	> 256	> 256	> 256
CS(=O)(=O)NCc1ccc2cccc(NS(=O)(=O)c3ccc(C(F)(F)F)cc3)c2n1 [ZDR209, N-(2-(Methylsulfonamidomethyl)quinolin-8-yl)-4-(trifluoromethyl)benzenesulfonamide]	> 256	> 256	> 256	1 (≈ 2.18 µM)	> 256	> 256
O=S(=O)(Nc1cccc2ccc(CNCC(F)F)nc12)c1ccc(C(F)(F)F)cc1 [ZDR100, N-(2-(((2,2-Difluoroethyl)amino)methyl)quinolin-8-yl)-4-(trifluoromethyl)benzenesulfonamide]	> 256	> 256	128 (≈ 287 µM)	0.25 (≈ 0.561 µM)	32 (≈ 71.8 µM)	256 (≈ 575 µM)
CN(C)CCNCc1ccc2cccc(NS(=O)(=O)c3ccc(C(F)(F)F)cc3)c2n1 [ZDR030, N-(2-(((2-(Dimethylamino)ethyl)amino)methyl)quinolin-8-yl)-4-(trifluoromethyl)benzenesulfonamide]	128 (≈ 283 µM)	≥ 256	16 (≈ 35.4 µM)	1 (≈ 2.21 µM)	16 (≈ 35.4 µM)	16 (≈ 35.4 µM)
CN(C)Cc1ccc2cccc(NS(=O)(=O)c3cccc(Cl)c3Cl)c2n1 [ZDR336, 2,3-Dichloro-N-(2-((dimethylamino)methyl)quinolin-8-yl)benzenesulfonamide]	> 256	> 256	64 (≈ 156 µM)	0.0625 (≈ 0.152 µM)	64 (≈ 156 µM)	128 (≈ 312 µM)
CN(C)Cc1ccc2cccc(NS(=O)(=O)c3ccccc3)c2n1 [ZDR061, N-(2-((Dimethylamino)methyl)quinolin-8-yl)benzenesulfonamide]	> 256	> 256	> 256	0.25 (≈ 0.732 µM)	> 256	256 (≈ 750 µM)
COCCOCCOCCNCc1ccc2cccc(NS(=O)(=O)c3ccc(C(F)(F)F)cc3)c2n1 [ZDR132, N-(2-(5,8,11-Trioxa-2-azadodecyl)quinolin-8-yl)-4-(trifluoromethyl)benzenesulfonamide]	256 (≈ 485 µM)	256 (≈ 485 µM)	64 (≈ 121 µM)	1 (≈ 1.9 µM)	64 (≈ 121 µM)	256 (≈ 485 µM)
O=S(=O)(Nc1cccc2ccc(/C=N/NCc3ccccc3)nc12)c1ccc(C(F)(F)F)cc1 [ZDR138, (E)-N-(2-((2-Benzylhydrazineylidene)methyl)quinolin-8-yl)-4-(trifluoromethyl)benzenesulfonamide]	> 256	> 256	> 256	0.5 (≈ 1.03 µM)	128 (≈ 264 µM)	128 (≈ 264 µM)
CN(C)Cc1ccc2cccc(NS(=O)(=O)C(F)(F)F)c2n1 [ZDR079, N-(2-((Dimethylamino)methyl)quinolin-8-yl)-1,1,1-trifluoromethanesulfonamide]	> 256	64 (≈ 192 µM)	> 256	0.5 (≈ 1.5 µM)	> 256	256 (≈ 768 µM)
CN(C)Cc1ccc2cccc(NS(=O)(=O)c3ccc(Cl)nc3)c2n1 [ZDR322, 6-Chloro-N-(2-((dimethylamino)methyl)quinolin-8-yl)pyridine-3-sulfonamide]	> 256	> 256	> 256	0.25 (≈ 0.663 µM)	128 (≈ 340 µM)	> 256
CN/N=C/c1ccc2cccc(NS(=O)(=O)c3ccc(C(F)(F)F)cc3)c2n1 [ZDR153, (E)-N-(2-((2-Methylhydrazineylidene)methyl)quinolin-8-yl)-4-(trifluoromethyl)benzenesulfonamide]	> 256	> 256	> 256	0.5 (≈ 1.22 µM)	64 (≈ 157 µM)	64 (≈ 157 µM)
O=S(=O)(Nc1cccc2ccc(CNCc3ccco3)nc12)c1ccc(C(F)(F)F)cc1 [ZDR106, N-(2-(((Furan-2-ylmethyl)amino)methyl)quinolin-8-yl)-4-(trifluoromethyl)benzenesulfonamide]	> 256	> 256	64 (≈ 139 µM)	0.25 (≈ 0.542 µM)	> 256	> 256
COc1ccc(S(=O)(=O)Nc2cccc3ccc(CN(C)C)nc23)cn1 [ZDR258, N-(2-((Dimethylamino)methyl)quinolin-8-yl)-6-methoxypyridine-3-sulfonamide]	> 256	> 256	256 (≈ 687 µM)	0.125 (≈ 0.336 µM)	> 256	> 256
O=S(=O)(NCCNCc1ccc2cccc(NS(=O)(=O)c3ccc(C(F)(F)F)cc3)c2n1)c1ccccc1 [ZDR181, N-(2-(((2-(Phenylsulfonamido)ethyl)amino)methyl)quinolin-8-yl)-4-(trifluoromethyl)benzenesulfonamide]	64 (≈ 113 µM)	> 256	> 256	0.5 (≈ 0.886 µM)	64 (≈ 113 µM)	> 256
O=S(=O)(Nc1cccc2ccc(CN(Cc3ccccn3)Cc3ccccn3)nc12)c1ccc(C(F)(F)F)cc1 [ZDR096, N-(2-((Bis(pyridin-2-ylmethyl)amino)methyl)quinolin-8-yl)-4-(trifluoromethyl)benzenesulfonamide]	> 256	> 256	64 (≈ 114 µM)	4 (≈ 7.1 µM)	> 256	> 256
CN(C)Cc1ccc2cccc(NS(=O)(=O)c3ccc(SC(F)(F)F)cc3)c2n1 [ZDR330, N-(2-((Dimethylamino)methyl)quinolin-8-yl)-4-((trifluoromethyl)thio)benzenesulfonamide]	> 256	> 256	128 (≈ 290 µM)	0.125 (≈ 0.283 µM)	32 (≈ 72.5 µM)	32 (≈ 72.5 µM)
CN(C)Cc1ccc2cccc(NS(=O)(=O)c3cccc(Cl)c3)c2n1 [ZDR084, 3-Chloro-N-(2-((dimethylamino)methyl)quinolin-8-yl)benzenesulfonamide]	256 (≈ 681 µM)	> 256	128 (≈ 341 µM)	0.0625 (≈ 0.166 µM)	256 (≈ 681 µM)	> 256
CN(C)Cc1ccc2cccc(NS(=O)(=O)c3ccc(C(C)(C)C)cc3)c2n1 [ZDR307, 4-(tert-Butyl)-N-(2-((dimethylamino)methyl)quinolin-8-yl)benzenesulfonamide]	> 256	> 256	> 256	0.0625 (≈ 0.157 µM)	> 256	> 256
